In paper PMC9936527, “Tandemly duplicated CYP82Ds catalyze 14-hydroxylation in triptolide biosynthesis and precursor production in Saccharomyces cerevisiae” (Nature Communications, 2023):

Columns and labels:
Format in all cases: biochemical, Tripterygium wilfordii
Conditions in all cases: NADPH with regenerating system, TwPOR3, Tris-HCl pH 7.5, 30 °C, 30 min; 14-hydroxylation
[1] = test system: T1, CYP82D274; assay: yeast microsomes, product […] by GC-MS, Michaelis-Menten fit
T1 construct: full-length CYP cloned from root cDNA, coexpressed with TwPOR3 (pESC-LEU) in Saccharomyces cerevisiae BY4741; yeast microsomes; with NADPH--cytochrome P450 reductase

[2] = test system: T2, CYP82D263; assay: yeast microsomes, product […] by LC-TQ-MS/MS, Michaelis-Menten fit
T2 construct: full-length CYP cloned from root cDNA, coexpressed with TwPOR3 (pESC-LEU) in Saccharomyces cerevisiae BY4741; yeast microsomes; with NADPH--cytochrome P450 reductase

[3] = test system: T1, CYP82D274; assay: as above

| Compound | Km [1] [µM] | Km [2] [µM] | Km [3] [µM] |
| --- | --- | --- | --- |
| CC(C)C1=CCC2=C(CC[C@H]3C(C)(C)CCC[C@]23C)C1 [compound 5, miltiradiene] | 47.3 ± 13 |  |  |
| CC(C)c1ccc2c(c1)CC[C@H]1[C@](C)(C(=O)O)CCC[C@]21C [compound 7, dehydroabietic acid] |  | 8.42 ± 1.89 | 0.99 ± 0.17 |
